In PubChem BioAssay (NCI):
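Cultured in 96-well plates, cells were exposed to test compound for 48 hours across five concentrations. The concentration for 50% growth inhibition is given as GI50. TGI: concentration producing complete growth inhibition.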

Assays:
Experiment in all cases: DTP human tumour cell line panel, 48 h
SN12C renal = tested on: SN12C renal
MDA-MB-435 = tested on: MDA-MB-435
BT-549 breast = tested on: BT-549 breast
A549 NSCLC = tested on: A549 NSCLC
DU-145 prostate = tested on: DU-145 prostate
NCI-H23 lung = tested on: NCI-H23 lung
HCC-2998 colon = tested on: HCC-2998 colon
KM12 colon = tested on: KM12 colon
MALME-3M melanoma = tested on: MALME-3M melanoma
K-562 leukemia = tested on: K-562 leukemia

CN(C)c1ccc(C(O)C2=CC(=O)c3ccccc3C2=O)cc1 (centres undefined)
GI50 (SN12C renal): 1.56 µM | TGI (SN12C renal): 4.54 µM | GI50 (MDA-MB-435): 5.94 µM | TGI (MDA-MB-435): 28 µM | GI50 (BT-549 breast): 2.58 µM | TGI (BT-549 breast): 6.25 µM | GI50 (A549 NSCLC): 30.3 µM | TGI (A549 NSCLC): > 100 µM | GI50 (DU-145 prostate): 2.23 µM | TGI (DU-145 prostate): 6.27 µM | GI50 (NCI-H23 lung): 27.2 µM | TGI (NCI-H23 lung): 97.5 µM | GI50 (HCC-2998 colon): 17 µM | TGI (HCC-2998 colon): 38.7 µM | GI50 (KM12 colon): 13.7 µM | TGI (KM12 colon): 91.4 µM | GI50 (MALME-3M melanoma): 24.2 µM | TGI (MALME-3M melanoma): 56.7 µM

COc1ccc(/C=C/C(=O)c2cc3c(N)c(C(=O)Nc4ccc(OC)cc4)sc3nc2C)cc1
GI50 (SN12C renal): 0.284 µM | TGI (SN12C renal): > 50 µM | GI50 (MDA-MB-435): 0.0189 µM | TGI (MDA-MB-435): 0.0777 µM | GI50 (BT-549 breast): 0.571 µM | TGI (BT-549 breast): > 50 µM | GI50 (A549 NSCLC): 0.231 µM | TGI (A549 NSCLC): > 50 µM | GI50 (DU-145 prostate): 0.184 µM | TGI (DU-145 prostate): 7.78 µM | GI50 (NCI-H23 lung): 0.181 µM | GI50 (HCC-2998 colon): 0.174 µM | GI50 (KM12 colon): 0.203 µM | TGI (KM12 colon): 20.5 µM | GI50 (K-562 leukemia): 0.385 µM | TGI (K-562 leukemia): > 50 µM

CCOC1Oc2ccc(C)cc2C(=O)/C1=C\Nc1ccc(S(N)(=O)=O)cc1 (centres undefined)
GI50 (SN12C renal): 11.6 µM | TGI (SN12C renal): 31.9 µM | GI50 (MDA-MB-435): 10 µM | TGI (MDA-MB-435): 23.8 µM | GI50 (BT-549 breast): 10.1 µM | TGI (BT-549 breast): 35.2 µM | GI50 (A549 NSCLC): 13.9 µM | TGI (A549 NSCLC): > 50 µM | GI50 (DU-145 prostate): 12.9 µM | TGI (DU-145 prostate): 35.7 µM | GI50 (NCI-H23 lung): 2.92 µM | TGI (NCI-H23 lung): 12.4 µM | GI50 (KM12 colon): 12 µM | TGI (KM12 colon): 32.5 µM | GI50 (K-562 leukemia): 15.2 µM | TGI (K-562 leukemia): > 50 µM

CCN(c1ccccc1)[C@H]1C(=O)N(c2ccc([N+](=O)[O-])cc2)[C@H]1c1ccc(OC)cc1
TGI (SN12C renal): > 100 µM | TGI (A549 NSCLC): > 100 µM | TGI (NCI-H23 lung): > 100 µM | TGI (HCC-2998 colon): > 100 µM | TGI (KM12 colon): > 100 µM | TGI (K-562 leukemia): > 100 µM | TGI (MALME-3M melanoma): > 100 µM

Cc1ccc(OC(=O)N2C/C(=C\c3ccccc3)C(=O)/C(=C/c3ccccc3)C2)cc1
TGI (SN12C renal): 58.3 µM | TGI (BT-549 breast): 88 µM | TGI (A549 NSCLC): > 100 µM | TGI (DU-145 prostate): > 100 µM | TGI (NCI-H23 lung): 87.9 µM | TGI (HCC-2998 colon): > 37 µM | TGI (KM12 colon): 45.7 µM | TGI (K-562 leukemia): > 51.7 µM | TGI (MALME-3M melanoma): > 100 µM

COCC(C(=O)OC1C/C=C/C=C/C(=O)OC(C(C)C(O)C(C)CCC(OC(=O)C(C)N(C)C)C(C)C(OC(C)=O)C(C)/C=C/N(C)C=O)C/C=C/C(OC)CC(C)C/C=C(\C)C(OC)CCC(C)C(O)C1C)N(C)C (centres undefined)
GI50 (SN12C renal): < 0.0001 µM | TGI (SN12C renal): 0.105 µM | GI50 (BT-549 breast): 0.00677 µM | TGI (BT-549 breast): 0.0915 µM | GI50 (A549 NSCLC): < 0.0001 µM | TGI (A549 NSCLC): 0.156 µM | GI50 (DU-145 prostate): < 0.0001 µM | TGI (DU-145 prostate): 0.000156 µM | GI50 (NCI-H23 lung): < 0.0001 µM | TGI (NCI-H23 lung): > 0.666 µM | GI50 (HCC-2998 colon): < 0.0001 µM | TGI (HCC-2998 colon): 0.237 µM | GI50 (KM12 colon): < 0.0001 µM | TGI (KM12 colon): < 0.0001 µM | GI50 (K-562 leukemia): < 0.0001 µM | TGI (K-562 leukemia): 0.116 µM | GI50 (MALME-3M melanoma): < 0.0001 µM | TGI (MALME-3M melanoma): 0.0225 µM

COc1cccc(-c2nc3sccn3c2-c2ccnc(NCCCNS(=O)(=O)c3ccccc3)c2)c1
GI50 (SN12C renal): 2.76 µM | TGI (SN12C renal): > 100 µM | GI50 (MDA-MB-435): 3.53 µM | TGI (MDA-MB-435): > 100 µM | GI50 (A549 NSCLC): 3.45 µM | TGI (A549 NSCLC): > 100 µM | GI50 (DU-145 prostate): 3.14 µM | TGI (DU-145 prostate): > 100 µM | GI50 (NCI-H23 lung): 2.99 µM | TGI (NCI-H23 lung): > 100 µM | GI50 (HCC-2998 colon): 4.38 µM | TGI (HCC-2998 colon): > 100 µM | GI50 (KM12 colon): 2.97 µM | TGI (KM12 colon): > 100 µM | GI50 (K-562 leukemia): 2.57 µM | TGI (K-562 leukemia): > 100 µM | GI50 (MALME-3M melanoma): 2.59 µM | TGI (MALME-3M melanoma): 9.73 µM

COc1ccc(C)cc1NC(=S)C#N
TGI (SN12C renal): > 100 µM | TGI (MDA-MB-435): > 100 µM | TGI (BT-549 breast): > 100 µM | TGI (A549 NSCLC): > 100 µM | TGI (DU-145 prostate): > 100 µM | TGI (NCI-H23 lung): > 100 µM | TGI (HCC-2998 colon): > 100 µM | TGI (KM12 colon): > 100 µM | TGI (K-562 leukemia): > 100 µM

COc1ccc(-c2csc(Nc3cccc(-c4csc(C)n4)c3)n2)cc1
GI50 (SN12C renal): 0.97 µM | TGI (SN12C renal): 7.96 µM | GI50 (MDA-MB-435): 0.366 µM | TGI (MDA-MB-435): 1.02 µM | GI50 (BT-549 breast): 8.2 µM | TGI (BT-549 breast): 40.3 µM | GI50 (A549 NSCLC): 0.902 µM | TGI (A549 NSCLC): 49.8 µM | GI50 (DU-145 prostate): 2.14 µM | TGI (DU-145 prostate): > 50 µM | GI50 (NCI-H23 lung): 0.931 µM | TGI (NCI-H23 lung): 10.1 µM | GI50 (KM12 colon): 1.17 µM | TGI (KM12 colon): > 16.7 µM | GI50 (K-562 leukemia): 0.137 µM | TGI (K-562 leukemia): 0.507 µM

COc1ccc(C2NC(=S)NC3=C2CCOc2c3ccc3ccccc23)cc1 (centres undefined)
GI50 (SN12C renal): > 100 µM | TGI (SN12C renal): > 100 µM | GI50 (MDA-MB-435): 36.4 µM | TGI (MDA-MB-435): > 100 µM | GI50 (BT-549 breast): 68.8 µM | TGI (BT-549 breast): > 100 µM | GI50 (A549 NSCLC): 39 µM | TGI (A549 NSCLC): > 100 µM | GI50 (DU-145 prostate): > 100 µM | TGI (DU-145 prostate): > 100 µM | GI50 (NCI-H23 lung): > 100 µM | TGI (NCI-H23 lung): > 100 µM | GI50 (KM12 colon): 27 µM | TGI (KM12 colon): > 100 µM | GI50 (K-562 leukemia): 32.4 µM | TGI (K-562 leukemia): > 100 µM | GI50 (MALME-3M melanoma): 49.8 µM | TGI (MALME-3M melanoma): > 100 µM

COc1ccc(C2=Nn3c(nnc3-n3nc(C)cc3C)SC2)cc1
GI50 (SN12C renal): 0.298 µM | TGI (SN12C renal): > 100 µM | GI50 (BT-549 breast): 0.192 µM | TGI (BT-549 breast): > 100 µM | GI50 (A549 NSCLC): 0.0765 µM | TGI (A549 NSCLC): > 100 µM | GI50 (DU-145 prostate): 0.04 µM | TGI (DU-145 prostate): 1.25 µM | GI50 (NCI-H23 lung): 0.18 µM | TGI (NCI-H23 lung): > 100 µM | GI50 (HCC-2998 colon): 0.254 µM | TGI (HCC-2998 colon): > 100 µM | GI50 (KM12 colon): 0.057 µM | TGI (KM12 colon): > 100 µM | GI50 (K-562 leukemia): 0.0351 µM | TGI (K-562 leukemia): > 100 µM | GI50 (MALME-3M melanoma): 0.0407 µM | TGI (MALME-3M melanoma): 70.5 µM

O=c1cccc(Cl)[nH]1
TGI (SN12C renal): > 100 µM | TGI (MDA-MB-435): > 100 µM | TGI (BT-549 breast): > 100 µM | TGI (A549 NSCLC): > 100 µM | TGI (DU-145 prostate): > 100 µM | TGI (NCI-H23 lung): > 100 µM | TGI (KM12 colon): > 100 µM | TGI (K-562 leukemia): > 100 µM | TGI (MALME-3M melanoma): > 100 µM

COc1cc2c3c(n(CCCNCCCNCCCN)c(=O)c2cc1OC)-c1cc2c(cc1C3=O)OCO2
GI50 (SN12C renal): 32.9 µM | TGI (SN12C renal): > 100 µM | GI50 (MDA-MB-435): 68.4 µM | TGI (MDA-MB-435): > 100 µM | GI50 (A549 NSCLC): > 100 µM | TGI (A549 NSCLC): > 100 µM | GI50 (DU-145 prostate): > 100 µM | TGI (DU-145 prostate): > 100 µM | GI50 (NCI-H23 lung): 13.5 µM | TGI (NCI-H23 lung): > 100 µM | GI50 (KM12 colon): > 100 µM | TGI (KM12 colon): > 100 µM

Cc1cc(C)nc(NS(=O)(=O)c2ccc(Nc3c4ccccc4nc4c(C(=O)NCCN(C)C)cccc34)cc2)n1
TGI (SN12C renal): 17.3 µM | TGI (A549 NSCLC): 16.1 µM | TGI (NCI-H23 lung): 21.5 µM | TGI (KM12 colon): 18.4 µM | TGI (K-562 leukemia): 17.8 µM

CCOc1ccc2cc(-c3nn(CC4CCNCC4)c4ncnc(N)c34)ccc2c1
GI50 (SN12C renal): 11.5 µM | TGI (SN12C renal): 33 µM | GI50 (MDA-MB-435): 13.1 µM | TGI (MDA-MB-435): 25.8 µM | GI50 (BT-549 breast): 13.4 µM | TGI (BT-549 breast): 27.6 µM | GI50 (A549 NSCLC): 20.3 µM | TGI (A549 NSCLC): 46.2 µM | GI50 (DU-145 prostate): 19.1 µM | TGI (DU-145 prostate): 55.6 µM | GI50 (NCI-H23 lung): 13.4 µM | TGI (NCI-H23 lung): 31.9 µM | GI50 (HCC-2998 colon): 17.1 µM | TGI (HCC-2998 colon): 31.5 µM | GI50 (KM12 colon): 1.64 µM | TGI (KM12 colon): 13.7 µM | GI50 (K-562 leukemia): 4.69 µM | TGI (K-562 leukemia): 17.1 µM

Cc1cc(Cl)ccc1NC(=O)C1C(=O)N(c2ccc(Cl)cc2C)C(=O)/C1=N\NC(N)=S (centres undefined)
TGI (SN12C renal): 96.3 µM | TGI (A549 NSCLC): > 100 µM | TGI (NCI-H23 lung): 41.6 µM | TGI (HCC-2998 colon): 44.5 µM | TGI (KM12 colon): > 100 µM | TGI (K-562 leukemia): 57.8 µM | TGI (MALME-3M melanoma): 49.7 µM
